Reference: patent US20250108119A1, “NOVEL STEROID PAYLOADS, STEROID LINKERS, ADCs CONTAINING AND USE THEREOF” (IMMUNEXT, INC., priority 2021, published 2025)

Key:
FKBP5 = FKBP5 transcription in peritoneal resident macrophages (PRM) and spleen cells after in vivo treatment; parameters: species or system hVISTA mice; settings: linker payloads as anti-VISTA conjugates; for FKBP5 induction in splenic cells (conclusions): day 1, 7, 14
[1] = tested on: peritoneal resident macrophages (PRM); experiment: In vivo treatment/ex vivo PRM activation, TNFα and IL-6 in supernatant; parameters: species or system hVISTA mice
Procedure: Based thereon we developed a model to allow us to evaluate long-term anti-inflammatory impact of ADC on specific target populations, such as PRMs. […] In the absence of GC treatment, after 2h PRMs become highly activated as shown by increases in cytokine production. […] The objective of these studies was to evaluate the efficacy and pharmacodynamic range of INX human VISTA antibodies conjugated to a glucocorticoid payload as compared to free Dex.
After euthanasia, mice were injected in the peritoneal cavity with 7 ml of PBS/0.5% BSA/2 mM EDTA. After a brief massage of the peritoneum, a small incision was performed and the peritoneal lavage collected. PRM were isolated using negative selection (Miltenyi kit, ref 130-110-434). Spleen were dissected and dissociated mechanically; monocytes were isolated using […] (Stem Cell, EasySep™ Mouse CD11b Positive Selection Kit II).
PRMs were resuspended in RPMI 1640 with 10% FBS, 10 mM Hepes, Penicillin/Streptomycin and glutamine and 100,000 cells were plated per well in a 96-well tissue culture plate. Supernatants were collected at 2 and 24h post plating and stored at −80° C. […]
• BioLegend (cat #430904) ELISA MAX Deluxe Set Mouse TNF-α • BioLegend (cat #431304) ELISA MAX Deluxe Set Mouse IL-6
ELISAs were conducted following the manufacturer's included protocol.

[2] = tested on: LPS stimulated human PBMCs; experiment: LPS stimulated human PBMC, IL-1β and IL-6 ELISA; type: cell-based
How it was run: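 Human PBMC (1-2 healthy donors), 150,000 cells/well, treated with test agents at 1,000 nM down to 1 nM or 0.2 nM, in duplicate. LPS at 1 ng/ml added immediately after free payload or 4 h after conjugates; IL-1β and IL-6 in supernatants measured by ELISA.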

[3] = linker/payloads as anti-VISTA conjugates

Structure (SMILES)	FKBP5 induction in splenic cells (conclusions) (FKBP5)	controlling cytokine response in PRM when dosed 14 days early (conclusions) [1, 3]	FKBP5 induction when dosed 14 days early (conclusions) (FKBP5)	potency of conjugated linker payloads over INX J (conclusions) [2]	preventing ex vivo induction of TNFα and IL-6 in PRM ([1]; Experiment 9: linker payloads as conjugates, 7 days post 0.2 mg/Kg of GC payload, supernatant 24h)	potency in PRM cytokine model when dosed 7 days early (conclusions) [1, 3]
C[C@]12C=CC(=O)C=C1CC[C@@H]1[C@@H]2[C@@H](O)C[C@@]2(C)[C@H]1C[C@H]1O[C@@H](c3ccc(Cc4cccc(NC(=O)[C@H](CCC(=O)O)NC(=O)CNC(=O)CBr)c4)cc3)O[C@]12C(=O)COP(=O)(O)O [INX L]	only demonstrate significant induction at day 1, and 7	significant potency in controlling cytokine response in PRM when dosed 14 days early	–	–	–	–
C[C@]12C=CC(=O)C=C1CC[C@@H]1[C@@H]2[C@@H](O)C[C@@]2(C)[C@H]1C[C@H]1O[C@@H](c3ccc(CC45CC(NC(=O)[C@H](CCC(=O)O)NC(=O)CNC(=O)CBr)(C4)C5)cc3)O[C@]12C(=O)COP(=O)(O)O [INX T, (S)-4-(2-(2-bromoacetamido)acetamido)-5-((3-(4-((6aR,6bS,7S,8aS,8bS,10R,11aR,12aS,12bS)-7-hydroxy-6a,8a-dimethyl-4-oxo-8b-(2-(phosphonooxy)acetyl)-2,4,6a,6b,7,8,8a,8b,11a,12,12a,12b-dodecahydro-1H-naphtho[2′,1′:4,5]indeno[1,2-d][1,3]dioxol-10-yl)benzyl)bicyclo[1.1.1]pentan-1-yl)amino)-5-oxopentanoic acid]	Significant FKBP5 induction is seen at day 1, 7, and 14 in splenic cells	significant potency in controlling cytokine response in PRM when dosed 14 days early	still display significant potency when dosed 14 days early in regard to FKBP5 induction	–	–	–
C[C@]12C=CC(=O)C=C1CC[C@@H]1[C@@H]2[C@@H](O)C[C@@]2(C)[C@H]1C[C@H]1O[C@@H](c3ccc(OC4CC5(CC(NC(=O)[C@H](CCC(=O)O)NC(=O)CNC(=O)CBr)C5)C4)cc3)O[C@]12C(=O)CO (stereo partly drawn) [INX A4, (S)-4-(2-(2-bromoacetamido)acetamido)-5-((6-(4-((6aR,6bS,7S,8aS,8bS,10R,11aR,12aS,12bS)-7-hydroxy-8b-(2-hydroxyacetyl)-6a,8a-dimethyl-4-oxo-2,4,6a,6b,7,8,8a,8b,11a,12,12a,12b-dodecahydro-1H-naphtho[2′,1′:4,5]indeno[1,2-d][1,3]dioxol-10-yl)phenoxy)spiro[3.3]heptan-2-yl)amino)-5-oxopentanoic acid]	only demonstrate significant induction at day 1, and 7	–	still display significant potency when dosed 14 days early in regard to FKBP5 induction	enhanced potency	–	–
C[C@]12C=CC(=O)C=C1CC[C@@H]1[C@@H]2[C@@H](O)C[C@@]2(C)[C@H]1C[C@H]1O[C@@H](C34CC(Cc5cccc(NC(=O)[C@H](CCC(=O)O)NC(=O)CNC(=O)CBr)c5)(C3)C4)O[C@]12C(=O)CO [INX O, (S)-4-(2-(2-bromoacetamido)acetamido)-5-((3-((3-((6aR,6bS,7S,8aS,8bS,10R,11aR,12aS,12bS)-7-hydroxy-8b-(2-hydroxyacetyl)-6a,8a-dimethyl-4-oxo-2,4,6a,6b,7,8,8a,8b,11a,12,12a,12b-dodecahydro-1H-naphtho[2′,1′:4,5]indeno[1,2-d][1,3]dioxol-10-yl)bicyclo[1.1.1]pentan-1-yl)methyl)phenyl)amino)-5-oxopentanoic acid]	–	–	–	–	little and non-significant impact on the PRM cytokine response	very limited and non-significant potency when conjugated to INX201
